The values below come from paper PMC10385664, “Projection of Target Drug Particle Size in Oral Formulations Using the Refined Developability Classification System (rDCS)” (Pharmaceutics, 2023).

Usually logD stands for lipophilicity at a set pH, counting ionised and neutral species. A lower logD goes with lower lipophilicity. The term solubility (thermodynamic) denotes the concentration in solution at equilibrium with solid. As a reminder, the solubility is the dissolved amount per volume that the medium holds.

The nature of data set [1]: Shake-flask n-octanol/water logDpH7.4 with HPLC-UV. It is filed as physicochemical. The note with it: octanol / 0.01 M phosphate buffer pH 7.4, 25 °C. As for the experimental part:
LogDpH7.4 values of the three APIs were determined at Pion Inc (UK) Ltd. (Forest Row, UK) using a shake-flask screening method and high performance liquid chromatography with UV detection (HPLC-UV). Samples containing the API were equilibrated between octanol-saturated 0.01 M phosphate buffer at pH 7.4 and buffer-saturated octanol and analyzed by HPLC-UV. The experimental details are provided in Supplementary Materials. Measured logDpH7.4 values are presented as means (±SD) and were compared to literature values as well as in silico predictions using the software ADMET Predictor version 9 and ACD/Labs Release 2021.1.2. […]
version 9 (Simulations Plus Inc., Lancaster, CA, USA) and ACD/ Labs Release 2021.1.2 (Advanced Chemistry Devel opment Inc., Toronto, Canada) with the molecular structure as input.
S.2.3. n‐Octanol/Water Distribution Coefficient (logDpH7.4) […]
screening method and HPLC analysis. Samples (n = 3) were prepared by addition of a 10 mM API stock solution in DMSO to an oct anol saturated 0.01 M phosphate buffer at pH 7.4 to prepare a 1:10 dilution (ionic strength adjusted with 0.15 M NaCl). Buffer saturated octanol was added (1:1) to prepare pa rtiti on systems, which were agitated on an electronic shake pla te for 4 h at 25 ± 2°C. All samples were centrifuged, and aqueous and octanol layers were separately transferred to 96 well plat es. Both layers of each replicate were analyzed with a standard HPLC gradient method (Table S3). A Waters Acquity H‐Class Plus System consisting of a sample manager, a quaternary solvent manager and a photodiode array (PDA) detector was used. All HPLC data was collected and processed using the software Empower® version 3.0. Measured logDpH7.4 values are presented as means with standard deviation and were compared to literature va lu es and predictions using the software ADMET Predictor version 9 and ACD/Labs Release 2021.1.2 wit h the molecular structure as input.
Table S3. Standard HP LC method for the determination of logDpH7.4 values.
System Waters Acquity H‐Class Plus System […]

Data set [2] in a line: Shake-flask equilibrium solubility in FaSSIF V1. It is filed as physicochemical. The note with it: for solubility thermodynamic at 24 h: pH 6.5, thermodynamic from solid, FaSSIF V1, pH 6.50 ± 0.05, 37 °C, read-out: CS FaSSIF V1 (thermodynamic solubility). As for the experimental part: Equilibrium solubilities of the three APIs in FaSSIF V1 were measured with the shake-flask method, following the ICH M9 guideline on BCS-based biowaivers. Briefly, an excess amount of each API was weighed into a 5 mL vial and the assay medium (FaSSIF V1) was added. The resulting suspensions were incubated at 37.0 ± 0.5 °C (Memmert Incubator IN750, Memmert GmbH + Co. KG, Schwabach, Germany) and agitated for 24 h at 25 rpm (LABINCO LD76 Digital Rotary Mixer, Labinco BV, Breda, The Netherlands). At 2, 4, 6 and 24 h, samples were drawn and filtered through Acrodisc 13 mm with 0.45 µm PTFE filters (Pall Corporation, Port Washington, NY, USA) after establishing that adsorption of the APIs onto the filters was less than 5%. Before sampling, the suspensions were checked visually for the presence of solid particles and the pH was measured (Metrohm 780 pH Meter, Metrohm AG, Herisau, Switzerland). All measured pH values were within the specified range of pH 6.50 ± 0.05, so no pH adjustment was necessary. The filtrates were diluted with a 1:1 mixture of ACN and Milli-Q water for analysis using ultra-performance liquid chromatography with UV detection (UPLC-UV).
XRPD patterns of the residual solids were compared to the starting material and literature profiles. A differential scanning calorimetry (DSC) analysis of the input materials was additionally performed. Istradefylline samples were protected from light in all studies using amber vials and aluminum foil to prevent photolysis. The experimental details of the UPLC-UV methods and solid state analyses can be found in Supplementary Materials.
The solubility experiments were performed in triplicate (n = 3) and solubilities are presented as means (± SD). The mean values were used as input for the rDCS and rtarget calculations.
S.2.4. rDCS Standard Investigations: Solubility Studies
Samples from the solubility studies were analyzed with UPLC‐UV analysis. For voriconazole and lemborexant a Waters Acquity UPLC System consisting of a sample manager, a binary solvent manager, and a PDA detector was used (Waters Corporation, Milford, USA). For istradefylline a Waters Acquity UPLC H‐Class System consisting of a sample manager, a quarternary solvent manager, and a PDA detector was used (Waters Corporation, Milford, MA , USA). The chromatograms were recorded and processed using the software Empower® version 3.0. Representative chromatograms for each API are shown in […]
the FaSSIF V1 solubility study were collected and examined using X‐ray powder diffraction (XRPD) analysis to detect solution‐mediated solid state changes. After 24 h, 1 to 5 mg of the residual solid was collected, pl aced on a zero‐background holder and allowed to sit at room temperature for 2 h. […]

The conditions of data set [3]: cited from earlier work.

Converted amounts (≈) assume the structure as drawn. Where two headings read alike, the source gives them in different places. Some results are limits rather than exact numbers.

In data set [1], `CCn1c(=O)c2c(nc(/C=C/c3ccc(OC)c(OC)c3)n2C)n(CC)c1=O` [Istradefylline, istradefylline] came in with a logD at 4 h of 2.96 ± 0.03. For the same compound, the solubility (thermodynamic) at 24 h in data set [2] was determined as 3.59 ± 0.05 µg/mL (≈ 9.34 µM). The “Literature pKa” value in data set [3] (basic pKa, method not disclosed) is 0.78 ^3 [31, 34].

In data set [1], `Cc1ncc(OC[C@@]2(c3cccc(F)c3)C[C@H]2C(=O)Nc2ccc(F)cn2)c(C)n1` [Lemborexant, lemborexant] returned a logD at 4 h of 3.04 ± 0.05. Moreover, the solubility (thermodynamic) at 24 h in data set [2] is 23.3 ± 0.1 µg/mL (≈ 56.8 µM). The “Literature pKa” value in data set [3] (estimated by capillary electrophoresis) is <3.50 [33].

Compound `C[C@@H](c1ncncc1F)[C@](O)(Cn1cncn1)c1ccc(F)cc1F` [Voriconazole, voriconazole] showed a logD at 4 h in data set [1] of 1.66 ± 0.03. For the same compound, in data set [2], the thermodynamic solubility at 24 h was determined as 827 ± 6 µg/mL (≈ 2370 µM). Also, in data set [2] (pH 6.5, Excel template input, FaSSIF V1, read-out: Estimate of intestinal solubility (CS)), the solubility at 24 h is 827 µg/mL (≈ 2370 µM). The “Literature pKa” value in data set [3] (basic pKa, triazole moiety, method not disclosed) is 1.76 ^3 [32].
